{"source": "patent US20030004194A1", "about": "“Method for treating fibrotic diseases or other indications VI” (Alteon, Inc., priority 2001, published 2003)", "key": {"Phase IIa clinical trial": {"assay": "Phase IIa clinical trial", "format": "in vivo, human", "description": "When the heart pumps blood into the vascular system, the ability of the arteries to expand helps to push blood through the body. When arteries become stiff, as they do in the natural process of aging, the ability of the arteries to expand is diminished and also has consequences for the heart. The heart has to work harder to pump the blood into the stiff arteries, and eventually hypertrophies (enlarges in size) to accomplish this. A hypertrophied heart is an inefficient pump, and is one of the disorders that leads to congestive heart failure. […] The potential clinical benefit of this is to lessen the effort that the heart must expend to push blood throughout the body. The effect is also believed to contribute to preventing hypertrophy and subsequent inefficiency of the heart, which inefficiency would contribute to congestive heart failure.\nAtherosclerosis is a disease that involves deposition of blood lipids in plaque in the arteries throughout the body. In coronary arteries, accumulation of plaque progressively leads to reduced coronary flow, with occlusion of the arteries causing focal death of cardiac tissue (myocardial infarction, heart attack). If the amount of tissue that dies is large enough, death ensures. […] Reducing local deposits of plaque should eventually lessen the risk of myocardial infarction and death due to heart attacks.\nPulse pressure is the difference between systolic and diastolic blood pressure. In a young human, systolic pressure is typically 120 mm Hg and diastolic pressure is 80 mm Hg, resulting in a pulse pressure of 40 mm Hg. With age, in many individuals pulse pressure increases, largely due to the increase in systolic pressure that results from stiff vessel disease. In individuals with pulse pressure greater than 60 mm Hg there is an increased risk of death from cardiovascular morbidities. […] This decrease in pulse pressure was believed to be due primarily to the effect of the agent on lowering the systolic blood pressure."}, "[1]": {"test_system": "collagen in cardiovascular tissues", "assay": "Mass of collagen in cardiovascular tissues after treatment", "format": "in vivo", "description": "(§1) Cardiovascular risk correlates more closely with the systolic and the pulse pressure than with the diastolic pressure. In diabetic patients, the cardiovascular risk profile of diabetic patients is strongly correlated to duration of diabetes, glycemic control and blood pressure. Structural matrix proteins contribute to the function of vessels and the heart, and changes in the physical behavior of cardiovascular walls are believed to be important determinants of circulatory function. In elderly individuals, the loss of compliance in the aorta leads to isolated systolic hypertension, which in turn expands the arterial wall and thereby diminishes the dynamic range of elasticity. Loss of compliance also results in the development of left ventricular hypertrophy."}, "[2]": {"assay": "Dog model for diabetes, ventricular elasticity", "format": "in vivo", "description": "as §1"}, "TGFbeta": {"test_system": "TGFbeta", "assay": "In situ hybridization studies, TGFbeta expression", "format": "in vivo", "description": "as §1"}, "[3]": {"assay": "In vivo studies of vascular stiffening", "conditions": "in vivo studies in rodents, canines and in primates", "description": "as §1"}, "Type IV collagen": {"test_system": "Type IV collagen", "assay": "In situ hybridization studies, Type IV collagen expression", "format": "in vivo", "description": "as §1"}}, "note": "Where a name gives a salt, the structure may show the parent alone.", "data": [{"smiles": "Cc1sc[n+](CC(=O)c2ccccc2)c1C", "note": "[3-[2-phenyl-2-oxoethyl]-4,5-dimethyl-thiazolium salt]", "values": [{"measurement": "stiffness of arteries, as measured by the ratio of stroke volume (ml) to pulse pressure (mm Hg)", "setting": "Phase IIa clinical trial; Phase IIa clinical trial", "value": "showed an ability to reverse the stiffness of arteries"}, {"measurement": "amount of circulating triglycerides (lipids)", "setting": "Phase IIa clinical trial; Phase IIa trial", "value": "increased the amount of circulating triglycerides"}, {"measurement": "pulse pressure", "setting": "Phase IIa clinical trial; Phase IIa trial, elderly patients with pulse pressures greater than 60 mm Hg, statistically significant", "value": "reduced pulse pressure"}, {"measurement": "mass of collagen in cardiovascular tissues", "setting": "[1]", "value": "reduction in the mass of collagen"}, {"measurement": "end diastolic pressure (indicator of ventricular elasticity)", "setting": "[2]", "value": "returned to a value at about the mid-point between the disease impaired value and the value for control dogs"}, {"measurement": "end diastolic volume (indicator of ventricular elasticity)", "setting": "[2]", "value": "returned to a value at about the mid-point between the disease impaired value and the value for control dogs"}, {"measurement": "expression of TGFbeta", "setting": "TGFbeta", "value": "reduces the expression"}, {"measurement": "vascular stiffening", "setting": "[3]", "value": "substantially ameliorating vascular stiffening"}, {"measurement": "expression of Type IV collagen", "setting": "Type IV collagen", "value": "reduces the expression"}]}]}
